The assay concerns the target T1, Androgen Receptor (AR) protein (Homo sapiens, UniProt P10275, T878A).
T1 construct: endogenous in cells; host or cells: LNCaP
As to the kind of experiment: Androgen Receptor (AR) protein degradation assay in LNCaP cells, western blotting. The following applies: 20 h; for inhibition at 0.01 µM: 0.01 μM compound; for inhibition at 0.1 µM: 0.1 μM compound; for inhibition at 1 µM: 1 μM compound; for inhibition at 10 µM: 10 μM compound. It counts as cell-based. The essentials:
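AR protein level was detected by western blot (ECL) against GAPDH or β-actin controls, with 8 μg lysate protein loaded per lane after BCA quantification. Lysates came from LNCaP cells exposed to test compound for 20 h, following 3 days of growth in RPMI/10% FBS.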
Background: A western blot detects proteins with antibodies after separation by electrophoresis.

Consider 15 molecules from patent US12122763B2, “Substituted piperidines for androgen receptor degradation” (UBIX THERAPEUTICS, INC., priority 2020, dated 2024).

Each structure is given as a SMILES string.

T1 sequence (P10275 whole entry T878A): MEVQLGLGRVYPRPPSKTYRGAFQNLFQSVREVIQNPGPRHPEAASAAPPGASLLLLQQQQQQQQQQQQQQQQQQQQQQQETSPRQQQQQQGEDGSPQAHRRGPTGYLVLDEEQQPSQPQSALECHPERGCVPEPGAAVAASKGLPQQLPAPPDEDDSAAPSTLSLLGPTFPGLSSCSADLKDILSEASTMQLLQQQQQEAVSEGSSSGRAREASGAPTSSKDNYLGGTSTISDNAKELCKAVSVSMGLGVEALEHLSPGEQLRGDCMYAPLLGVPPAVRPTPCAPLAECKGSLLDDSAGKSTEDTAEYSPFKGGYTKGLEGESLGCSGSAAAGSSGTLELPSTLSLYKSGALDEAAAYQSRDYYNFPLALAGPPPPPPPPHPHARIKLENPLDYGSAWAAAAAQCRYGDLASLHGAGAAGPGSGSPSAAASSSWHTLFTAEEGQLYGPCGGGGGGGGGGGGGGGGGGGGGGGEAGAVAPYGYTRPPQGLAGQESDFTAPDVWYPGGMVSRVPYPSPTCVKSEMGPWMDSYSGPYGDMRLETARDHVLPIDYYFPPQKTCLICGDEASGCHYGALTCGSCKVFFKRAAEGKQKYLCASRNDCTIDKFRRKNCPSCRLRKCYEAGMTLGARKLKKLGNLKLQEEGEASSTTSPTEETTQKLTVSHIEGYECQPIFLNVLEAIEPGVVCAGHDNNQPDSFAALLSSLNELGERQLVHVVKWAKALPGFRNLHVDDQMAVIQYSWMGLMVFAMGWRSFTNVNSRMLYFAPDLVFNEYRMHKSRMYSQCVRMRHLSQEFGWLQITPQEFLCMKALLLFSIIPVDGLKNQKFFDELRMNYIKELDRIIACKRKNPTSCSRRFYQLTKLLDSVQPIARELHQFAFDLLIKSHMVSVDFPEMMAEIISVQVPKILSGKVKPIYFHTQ
T1 sequence (Q96SW2 whole entry partner): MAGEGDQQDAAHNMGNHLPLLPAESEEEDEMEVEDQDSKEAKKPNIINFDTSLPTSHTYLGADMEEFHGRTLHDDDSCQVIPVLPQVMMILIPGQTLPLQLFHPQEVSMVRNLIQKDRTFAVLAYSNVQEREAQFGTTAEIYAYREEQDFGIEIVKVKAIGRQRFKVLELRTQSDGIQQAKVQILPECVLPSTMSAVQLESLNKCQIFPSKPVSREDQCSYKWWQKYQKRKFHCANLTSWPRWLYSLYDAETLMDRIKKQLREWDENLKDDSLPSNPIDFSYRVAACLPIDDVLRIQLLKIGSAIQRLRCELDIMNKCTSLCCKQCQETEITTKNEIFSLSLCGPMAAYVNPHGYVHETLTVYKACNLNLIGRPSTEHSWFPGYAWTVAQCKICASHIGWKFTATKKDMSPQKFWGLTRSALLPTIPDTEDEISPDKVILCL

The inhibition is the relative decrease from the control value, in per cent. Consider `N#Cc1ccc(N2CCC(C(=O)Nc3ccc(N4CCC(CN5CC6(CCN(c7ccc8c(c7)C(=O)N(C7CCC(=O)NC7=O)C8=O)CC6)C5)CC4)cn3)CC2)cc1Cl` (stereo not shown) [Example 50, 1-(3-chloro-4-cyanophenyl)-N-(5-(4-((7-(2-(2,6-dioxopiperidin-3-yl)-1,3-dioxoisoindolin-5-yl)-2,7-diazaspiro[3.5]nonan-2-yl)methyl)piperidin-1-yl)pyridin-2-yl)piperidine-4-carboxamide], for which the inhibition at 0.01 µM was determined as 61%, the inhibition at 0.1 µM came to 97%, the inhibition at 1 µM turned out to be 99% and the inhibition at 10 µM is 98%.
Take `CC1(C(=O)Nc2ccc(N3CCC(CN4CC5(CCN(c6ccc7c(c6)C(=O)N(C6CCC(=O)NC6=O)C7=O)CC5)C4)CC3)cn2)CCN(c2ccc(C#N)c(C(F)(F)F)c2)CC1` (stereo not shown) [Example 51, 1-(4-cyano-3-(trifluoromethyl)phenyl)-N-(5-(4-((7-(2-(2,6-dioxopiperidin-3-yl)-1,3-dioxoisoindolin-5-yl)-2,7-diazaspiro[3.5]nonan-2-yl)methyl)piperidin-1-yl)pyridin-2-yl)-4-methylpiperidine-4-carboxamide]: the inhibition at 0.01 µM turned out to be 33%, the inhibition at 0.1 µM was 85% and the inhibition at 1 µM was 94%.
In the same order, the values of `N#Cc1ccc(N2CCC(C(=O)Nc3ccc(N4CCC(CN5CC6(CCN(c7ccc8c(=O)n(C9CCC(=O)NC9=O)nnc8c7)CC6)C5)CC4)cn3)CC2)cc1C(F)(F)F` (stereo not shown) [Example 52, 1-(4-cyano-3-(trifluoromethyl)phenyl)-N-(5-(4-((7-(3-(2,6-dioxopiperidin-3-yl)-4-oxo-3,4-dihydrobenzo[d][1,2,3]triazin-7-yl)-2,7-diazaspiro[3.5]nonan-2-yl)methyl)piperidin-1-yl)pyridin-2-yl)piperidine-4-carboxamide] are 50%, 91% and 97%.
On the same counts, the results for `N#Cc1ccc(N2CCC(C(=O)Nc3ccc(N4CCC(CN5CC6(CCN(c7ccc8nnn(C9CCC(=O)NC9=O)c(=O)c8c7)CC6)C5)CC4)cn3)CC2)cc1C(F)(F)F` (stereo not shown) [Example 53, 1-(4-cyano-3-(trifluoromethyl)phenyl)-N-(5-(4-((7-(3-(2,6-dioxopiperidin-3-yl)-4-oxo-3,4-dihydrobenzo[d][1,2,3]triazin-6-yl)-2,7-diazaspiro[3.5]nonan-2-yl)methyl)piperidin-1-yl)pyridin-2-yl)piperidine-4-carboxamide] are 27%, 89% and 93%.
Turning to `N#Cc1ccc(N2CCC(F)(C(=O)Nc3ccc(N4CCC(CN5CC6(CCN(c7ccc8c(c7)C(=O)N(C7CCC(=O)NC7=O)C8=O)CC6)C5)CC4)cn3)CC2)cc1C(F)(F)F` (stereo not shown) [Example 54, 1-(4-cyano-3-(trifluoromethyl)phenyl)-N-(5-(4-((7-(2-(2,6-dioxopiperidin-3-yl)-1,3-dioxoisoindolin-5-yl)-2,7-diazaspiro[3.5]nonan-2-yl)methyl)piperidin-1-yl)pyridin-2-yl)-4-fluoropiperidine-4-carboxamide], the inhibition at 0.01 µM worked out at 60%, the inhibition at 0.1 µM is 95% and the inhibition at 1 µM was 98%.
`N#Cc1ccc(N2CCC(O)(C(=O)Nc3ccc(N4CCC(CN5CC6(CCN(c7ccc8c(c7)C(=O)N(C7CCC(=O)NC7=O)C8=O)CC6)C5)CC4)cn3)CC2)cc1C(F)(F)F` (stereo not shown) [Example 55, 1-(4-cyano-3-(trifluoromethyl)phenyl)-N-(5-(4-((7-(2-(2,6-dioxopiperidin-3-yl)-1,3-dioxoisoindolin-5-yl)-2,7-diazaspiro[3.5]nonan-2-yl)methyl)piperidin-1-yl)pyridin-2-yl)-4-hydroxypiperidine-4-carboxamide]: the inhibition at 0.01 µM amounted to 34%, the inhibition at 0.1 µM came out at 69% and the inhibition at 1 µM turned out to be 95%.
On the same counts, the results for `N#Cc1ccc(N2CCC(CC(=O)Nc3ccc(N4CCC(CN5CC6(CCN(c7ccc8c(c7)C(=O)N(C7CCC(=O)NC7=O)C8=O)CC6)C5)CC4)cn3)C2)cc1C(F)(F)F` (stereo not shown) [Example 56, 2-(1-(4-cyano-3-(trifluoromethyl)phenyl)pyrrolidin-3-yl)-N-(5-(4-((7-(2-(2,6-dioxopiperidin-3-yl)-1,3-dioxoisoindolin-5-yl)-2,7-diazaspiro[3.5]nonan-2-yl)methyl)piperidin-1-yl)pyridin-2-yl)acetamide] are -8%, 87% and 95%.
With `N#Cc1ncc(N2CCC(C(=O)Nc3ccc(N4CCC(CN5CC6(CCN(c7ccc8c(c7)C(=O)N(C7CCC(=O)NC7=O)C8=O)CC6)C5)CC4)cn3)CC2)cc1C(F)(F)F` (stereo not shown) [Example 57, 1-(6-cyano-5-(trifluoromethyl)pyridin-3-yl)-N-(5-(4-((7-(2-(2,6-dioxopiperidin-3-yl)-1,3-dioxoisoindolin-5-yl)-2,7-diazaspiro[3.5]nonan-2-yl)methyl)piperidin-1-yl)pyridin-2-yl)piperidine-4-carboxamide], the inhibition at 0.01 µM is 43%, the inhibition at 0.1 µM was found to be 85% and the inhibition at 1 µM came out at 96%.
In the same order, the values of `N#Cc1ncc(N2CCC(F)(C(=O)Nc3ccc(N4CCC(CN5CC6(CCN(c7ccc8c(c7)C(=O)N(C7CCC(=O)NC7=O)C8=O)CC6)C5)CC4)cn3)CC2)cc1C(F)(F)F` (stereo not shown) [Example 58, 1-(6-cyano-5-(trifluoromethyl)pyridin-3-yl)-N-(5-(4-((7-(2-(2,6-dioxopiperidin-3-yl)-1,3-dioxoisoindolin-5-yl)-2,7-diazaspiro[3.5]nonan-2-yl)methyl)piperidin-1-yl)pyridin-2-yl)-4-fluoropiperidine-4-carboxamide] are 16%, 41% and 77%.
In the case of `N#Cc1ccc(N2CCC(C(=O)Nc3ccc(N4CCC(CN5CC6(CCN(c7ccc8c(c7)C(=O)N(C7CCC(=O)NC7=O)C8=O)CC6)C5)CC4)nc3)CC2)cc1C(F)(F)F` (stereo not shown) [Example 59, 1-(4-cyano-3-(trifluoromethyl)phenyl)-N-(6-(4-((7-(2-(2,6-dioxopiperidin-3-yl)-1,3-dioxoisoindolin-5-yl)-2,7-diazaspiro[3.5]nonan-2-yl)methyl)piperidin-1-yl)pyridin-3-yl)piperidine-4-carboxamide], the inhibition at 0.01 µM came to 9%, the inhibition at 0.1 µM was 32%, the inhibition at 1 µM was 47% and the inhibition at 10 µM worked out at 68%.
On the same counts, the results for `N#Cc1ccc(N2CCC(C(=O)Nc3ccc(N4CCC(CN5CC6(CCN(c7ccc8c(c7)C(=O)N(C7CCC(=O)NC7=O)C8=O)CC6)C5)CC4)nc3)CC2)cc1Cl` (stereo not shown) [Example 60, 1-(3-chloro-4-cyanophenyl)-N-(6-(4-((7-(2-(2,6-dioxopiperidin-3-yl)-1,3-dioxoisoindolin-5-yl)-2,7-diazaspiro[3.5]nonan-2-yl)methyl)piperidin-1-yl)pyridin-3-yl)piperidine-4-carboxamide] are 16%, 32%, 32% and 66%.
As to `N#Cc1ccc(N2CCC(C(=O)Nc3ccc(N4CC[C@@H](CN5CC6(CCN(c7ccc8c(c7)C(=O)N(C7CCC(=O)NC7=O)C8=O)CC6)C5)C4)cn3)CC2)cc1C(F)(F)F` (stereo partly drawn) [Example 61, 1-(4-cyano-3-(trifluoromethyl)phenyl)-N-(5-((3S)-3-((7-(2-(2,6-dioxopiperidin-3-yl)-1,3-dioxoisoindolin-5-yl)-2,7-diazaspiro[3.5]nonan-2-yl)methyl)pyrrolidin-1-yl)pyridin-2-yl)piperidine-4-carboxamide], the inhibition at 0.01 µM worked out at 57%, the inhibition at 0.1 µM amounted to 94.5%, the inhibition at 1 µM stood at 97.5% and the inhibition at 10 µM was determined as 96%.
On the same counts, the results for `N#Cc1ccc(N2CCC(C(=O)Nc3ccc(N4CC[C@H](CN5CC6(CCN(c7ccc8c(c7)C(=O)N(C7CCC(=O)NC7=O)C8=O)CC6)C5)C4)cn3)CC2)cc1C(F)(F)F` (stereo partly drawn) [Example 62, 1-(4-cyano-3-(trifluoromethyl)phenyl)-N-(5-((3R)-3-((7-(2-(2,6-dioxopiperidin-3-yl)-1,3-dioxoisoindolin-5-yl)-2,7-diazaspiro[3.5]nonan-2-yl)methyl)pyrrolidin-1-yl)pyridin-2-yl)piperidine-4-carboxamide] are 69%, 95%, 96% and 87.5%.
In the same order, the values of `N#Cc1ccc(N2CCC(C(=O)Nc3ccc(N4CCC(CN5CCC6(CC5)CN(c5ccc7c(c5)C(=O)N(C5CCC(=O)NC5=O)C7=O)C6)CC4)cn3)CC2)cc1C(F)(F)F` (stereo not shown) [Example 63, 1-(4-cyano-3-(trifluoromethyl)phenyl)-N-(5-(4-((2-(2-(2,6-dioxopiperidin-3-yl)-1,3-dioxoisoindolin-5-yl)-2,7-diazaspiro[3.5]nonan-7-yl)methyl)piperidin-1-yl)pyridin-2-yl)piperidine-4-carboxamide] are 45%, 94%, 98.5% and 94.5%.
In the same order, the values of `N#Cc1ccc(N2CCC(C(=O)Nc3ccc(N4CCC(CN5CCC6(CC5)CN(c5ccc7c(c5)C(=O)N(C5CCC(=O)NC5=O)C7=O)C6)CC4)cn3)CC2)cc1Cl` (stereo not shown) [Example 64, 1-(3-chloro-4-cyanophenyl)-N-(5-(4-((2-(2-(2,6-dioxopiperidin-3-yl)-1,3-dioxoisoindolin-5-yl)-2,7-diazaspiro[3.5]nonan-7-yl)methyl)piperidin-1-yl)pyridin-2-yl)piperidine-4-carboxamide] are 71.5%, 97%, 98.5% and 98.5%.
